Measurements taken from PubChem BioAssay (NCI).
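How tested: cells in 96-well plates exposed to compound for 48 hours at five concentrations. GI50 = concentration required for 50% inhibition of growth. TGI marks complete inhibition of growth.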

Columns and labels:
Experiment in all cases: DTP human tumour cell line panel, 48 h
[1] = system: DU-145 prostate
[2] = system: M14 melanoma
[3] = system: MCF7 breast
[4] = system: SR leukemia
[5] = system: MDA-MB-435
[6] = system: IGROV1 ovarian
[7] = system: HOP-62 NSCLC
[8] = system: NCI-H522 lung
[9] = system: HCC-2998 colon
[10] = system: NCI-H23 lung
[11] = system: KM12 colon
[12] = system: TK-10 renal
[13] = system: U251 CNS
[14] = system: SN12C renal
[15] = system: RPMI-8226 leukemia
[16] = system: ACHN renal
[17] = system: OVCAR-3 ovarian
[18] = system: COLO 205 colon
[19] = system: LOX IMVI melanoma
[20] = system: UACC-62 melanoma
[21] = system: HL-60(TB) leukemia
[22] = system: SK-MEL-28 melanoma
[23] = system: HOP-92 NSCLC
[24] = system: NCI-H460 lung
[25] = system: CAKI-1 renal
[26] = system: UACC-257 melanoma
[27] = system: SF-295 CNS
[28] = system: MALME-3M melanoma
[29] = system: SF-539 CNS

**Q.** Which results are given for CC1=C(CCC(C)NCc2ccc(OCCCN3CCCCC3)cc2)C(C)(C)CCC1 (configuration not stated)?
**A.** TGI [1]: 4.17 µM; GI50 [2]: 0.214 µM; TGI [2]: 0.468 µM; GI50 [3]: 0.286 µM; TGI [3]: 1.17 µM; GI50 [4]: 0.221 µM; TGI [4]: 0.608 µM; GI50 [5]: 0.216 µM; TGI [5]: 0.528 µM; GI50 [6]: 1.68 µM; TGI [6]: 3.89 µM; GI50 [7]: 1.84 µM; TGI [7]: 3.64 µM; GI50 [8]: 1.45 µM; TGI [8]: 3.21 µM; GI50 [9]: 0.232 µM; TGI [9]: 0.612 µM; GI50 [10]: 1.73 µM; TGI [10]: 3.82 µM; GI50 [11]: 1.7 µM; TGI [11]: 3.36 µM; GI50 [12]: 1.69 µM; TGI [12]: 3.19 µM; GI50 [13]: 1.57 µM; TGI [13]: 3.28 µM; GI50 [14]: 1.87 µM; TGI [14]: 3.95 µM; GI50 [15]: 2.29 µM; TGI [15]: 5.36 µM; GI50 [16]: 1.69 µM; TGI [16]: 3.17 µM; GI50 [17]: 1.79 µM; TGI [17]: 4.07 µM; GI50 [18]: 0.197 µM; TGI [18]: 0.427 µM; GI50 [19]: 1.44 µM; TGI [19]: 2.85 µM; GI50 [20]: 1.94 µM; TGI [20]: 3.73 µM; GI50 [21]: 2.14 µM; TGI [21]: 4.2 µM; GI50 [22]: 1.38 µM; TGI [22]: 2.83 µM; GI50 [23]: 1.26 µM; TGI [23]: 2.72 µM; GI50 [24]: 1.53 µM; TGI [24]: 3.28 µM; GI50 [25]: 1.82 µM; TGI [25]: 3.92 µM; GI50 [26]: 2.2 µM; TGI [26]: 4.03 µM; GI50 [27]: 1.66 µM; TGI [27]: 3.23 µM; GI50 [28]: 1.6 µM; TGI [28]: 3.29 µM; GI50 [29]: 1.64 µM; TGI [29]: 3.22 µM
